Reference: patent US7314858B2, “Retrocyclins: antiviral and antimicrobial peptides” (priority 2001, dated 2008)
Several values for one entry are separate records, joined by “and”; a condition that tells them apart may be missing. Equal entries are not always repeated. Entries after “also recorded” stand apart in the source; their conditions may differ. Where two headings read alike, the source gives them in different places. Where a SMILES comes first, the peptide text is derived from it. Bridges are numbered along the chain shown (N, C = ends). [ ]: non-standard residue; d: D form.

Assays:
HIV-1 strain IIIB = assay: HIV-1 IIIB infection of CD4+ PBMC, p24 antigen ELISA; format: cell-based; details: CD4+ PBMC, IIIB (X4), peptide 10-20 μg/ml
Description: FIG. 5A-C. Anti-HIV-1 activity of retrocyclin. Two strains of HIV-1 and two types of human target cells were used. The IIIB strain is T-cell tropic (X4) and utilizes the CXCR4 co-receptor for entry; the JR-CSF strain is M-tropic (R5) and uses CCR5 for entry. PBMC signifies CD4^+-selected peripheral blood mononuclear cells. […] (A) Two concentrations of retrocyclin (2 μg/ml, 20 μg/ml), 20 μg/ml of the Rhesus circular defensin “RTD-1”, and 20 μg/ml of a horseshoe crab-derived peptide “T140”, reported to only prevent X4 infections, were tested in antiviral assays of against strain IIIB in H9 cells (n=2-6 per peptide; error bars indicate SEM). (B) To confirm our results with primary human cells, similar assays were performed utilizing IIIB virus and CD4^+ PBMC or (C) JR-CSF virus and CD4^+ PBMC. […] Average of duplicate experiments are reported for studies with PBMCs. Assay sensitivity=10 pg/ml.
Either HIV-1-permissive H9 cells were used as targets, or primary CD4^+ lymphocytes from HIV-1-seronegative donors generated from freshly purified peripheral blood mononuclear cells (PBMC) stimulated with a CD3-CD8 bispecific monoclonal antibody. […] These cells were maintained in RPMI containing 10% FCS supplemented with 2 mM glutamine, 100 U of penicillin/ml, 10 μg of streptomycin/ml, and 50 U of interleukin 2/ml (R10-50 media).
Examining the effect of adding retrocyclin at various times pre- and post-HIV-1 infection. […] Primary CD4^+ PBMC were incubated with HIV-IIIB (FIG. 6) or HIV-JR-CSF for 3 hours in the presence or absence of 20 μg/ml retrocyclin. The cells were subsequently washed in media, and incubated an additional 9 days. Retrocyclin (20 μg/ml) was added back to some of the cultures at time points specified in FIG. 6 and infection was monitored by p24 ELISA as previously described. […]

human red blood cells = assay: Hemagglutination of washed red blood cells in PBS
Description: Hemagglutination was tested by adding the stated concentration of peptide to a well comprising red blood cells (shown in FIG. 22). When the RBC are agglutinated, they clump together and settle rapidly and form a diffuse circle covering much of the bottom of the well. In the absence of agglutination, they settle more slowly and form a compact red button in the center of the well.
Sequences of retrocyclin-related peptides that were synthesized and either tested for activity against HIV-1 (see FIGS. 21A and 21B) and/or for their ability to cause human red blood cells to hemagglutinate or both. NT signifies not tested. Linear sequences appear in the table, but all peptides were cyclic and contained three intramolecular disulfide bonds. Hemagglutination of washed human red blood cells was tested in PBS, at peptide concentrations of 50, 25, 12.5 6.25 and 3.12 μg/ml. The lowest concentrations that caused hemagglutination are shown. Peptide concentrations were determined by amino acid analysis or by AUC (area under the curve) RP-HPLC analysis with reference to amino-acid analyzed standards.

HIV-1 strain JR-CSF = assay: HIV-1 JR-CSF infection of CD4+ PBMC, p24 antigen ELISA; format: cell-based; details: JR-CSF (R5), peptide 10-20 μg/ml
Description: FIG. 5A-C. Anti-HIV-1 activity of retrocyclin. Two strains of HIV-1 and two types of human target cells were used. The IIIB strain is T-cell tropic (X4) and utilizes the CXCR4 co-receptor for entry; the JR-CSF strain is M-tropic (R5) and uses CCR5 for entry. PBMC signifies CD4^+-selected peripheral blood mononuclear cells. […] (A) Two concentrations of retrocyclin (2 μg/ml, 20 μg/ml), 20 μg/ml of the Rhesus circular defensin “RTD-1”, and 20 μg/ml of a horseshoe crab-derived peptide “T140”, reported to only prevent X4 infections, were tested in antiviral assays of against strain IIIB in H9 cells (n=2-6 per peptide; error bars indicate SEM). (B) To confirm our results with primary human cells, similar assays were performed utilizing IIIB virus and CD4^+ PBMC or (C) JR-CSF virus and CD4^+ PBMC. Peptides were not cytotoxic at indicated concentrations, measured by trypan blue exclusion. Average of duplicate experiments are reported for studies with PBMCs. Assay sensitivity=10 pg/ml.
Either HIV-1-permissive H9 cells were used as targets, or primary CD4^+ lymphocytes from HIV-1-seronegative donors generated from freshly purified peripheral blood mononuclear cells (PBMC) stimulated with a CD3-CD8 bispecific monoclonal antibody. After approximately 7 days, when 98% of these cells co-expressed CD3 and CD4, they were infected with HIV-1 with or without retrocyclin or other test peptide. These cells were maintained in RPMI containing 10% FCS supplemented with 2 mM glutamine, 100 U of penicillin/ml, 10 μg of streptomycin/ml, and 50 U of interleukin 2/ml (R10-50 media).
The p24 assay results shown in FIG. 9 are on a logarithmic scale. A horizontal reference line that passes through 100 on the ordinate scale corresponds to […] of p24 antigen. Results from 3 experiments (each performed with PBMC from a different donor) are shown.

[1] = washed human red blood cells in PBS

Compound	Hemagglutination seen at a concentration of (lowest concentration that caused hemagglutination) (human red blood cells; [1])	hemagglutination compared with retrocyclin (human red blood cells; [1])	other results
I11Y-Retrocyclin (cyclo(GICRCICGRGYCRCICGR); disulfide (positions not given here); ring closure inferred; not fully specified (bridges)) [RC-105]	–	–	inhibition of HIV-1 replication (p24) (HIV-1 strain IIIB): either inactive or only modestly active
CC[C@H](C)[C@@H]1NC(=O)CNC(=O)[C@H](CCCNC(=N)N)NC(=O)CNC(=O)[C@@H]2CSSC[C@H](NC1=O)C(=O)N[C@@H](CCCNC(=N)N)C(=O)N[C@H]1CSSC[C@H](NC(=O)[C@H](CCCNC(=N)N)NC(=O)[C@@H]3CSSC[C@H](NC(=O)[C@H]([C@@H](C)CC)NC1=O)C(=O)NCC(=O)N[C@@H](CCCCN)C(=O)N[C@@H](CCCNC(=N)N)C(=O)N[C@@H]([C@@H](C)CC)C(=O)N3)C(=O)N[C@@H]([C@@H](C)CC)C(=O)N2 [RC123A, Retrocyclin 2A] (cyclo(CGKRICRCICGRGICRCI); disulfide 1-6, 8-17, 10-15)	50 µg/mL	less hemagglutination than retrocyclin-1 or retrocyclin-2	–
CC[C@@H](C)[C@H]1NC(=O)CNC(=O)[C@@H](CCCCN)NC(=O)CNC(=O)[C@H]2CSSC[C@@H](NC1=O)C(=O)N[C@H](CCCNC(=N)N)C(=O)N[C@@H]1CSSC[C@@H](NC(=O)[C@@H](CCCNC(=N)N)NC(=O)[C@H]3CSSC[C@@H](NC(=O)[C@@H]([C@H](C)CC)NC1=O)C(=O)NCC(=O)N[C@H](CCCNC(=N)N)C(=O)NCC(=O)N[C@H]([C@H](C)CC)C(=O)N3)C(=O)N[C@H]([C@H](C)CC)C(=O)N2 [RC-113, enantio-RC-101]	50 µg/mL	less hemagglutination than retrocyclin-1 or retrocyclin-2	–
CC[C@H](C)[C@@H]1NC(=O)CNC(=O)[C@H](CCCNC(=N)N)NC(=O)CNC(=O)[C@@H]2CSSC[C@H](NC1=O)C(=O)N[C@@H](CCCNC(=N)N)C(=O)N[C@H]1CSSC[C@H](NC(=O)[C@H](CCCNC(=N)N)NC(=O)[C@@H]3CSSC[C@H](NC(=O)[C@H]([C@@H](C)CC)NC1=O)C(=O)NCC(=O)N[C@@H](CCCCN)C(=O)N[C@@H](CCCCN)C(=O)N[C@@H]([C@@H](C)CC)C(=O)N3)C(=O)N[C@@H]([C@@H](C)CC)C(=O)N2 [RC123B, Retrocyclin 2B] (cyclo(CGKKICRCICGRGICRCI); disulfide 1-6, 8-17, 10-15)	6.25 µg/mL	–	–
R→K Retrocyclin-1 (cyclo(GICKCICGKGICKCICGR); disulfide (positions not given here); ring closure inferred; not fully specified (bridges)) [RC119]	–	–	Hemagglutination seen at a concentration of (lowest concentration that caused hemagglutination) (human red blood cells): 50 µg/mL
CC[C@H](C)[C@@H]1NC(=O)CNC(=O)[C@H](CCCCN)NC(=O)CNC(=O)[C@@H]2CSSC[C@H](NC1=O)C(=O)N[C@@H](CCCNC(=N)N)C(=O)N[C@H]1CSSC[C@H](NC(=O)[C@H](CCCNC(=N)N)NC(=O)[C@@H]3CSSC[C@H](NC(=O)[C@H](Cc4ccc(O)cc4)NC1=O)C(=O)NCC(=O)N[C@@H](CCCNC(=N)N)C(=O)NCC(=O)N[C@@H]([C@@H](C)CC)C(=O)N3)C(=O)N[C@@H]([C@@H](C)CC)C(=O)N2 [RC-114, RC-101/103 hybrid] (cyclo(CGKGICRCYCGRGICRCI); disulfide 1-6, 8-17, 10-15)	200 µg/mL and > 150 µg/mL	much less hemagglutination than retrocyclin	–
CC[C@H](C)[C@@H]1NC(=O)CNC(=O)[C@H](CCCNC(=N)N)NC(=O)CNC(=O)[C@@H]2CSSC[C@H](NC1=O)C(=O)N[C@@H](CCCNC(=N)N)C(=O)N[C@H]1CSSC[C@H](NC(=O)[C@H](CCCNC(=N)N)NC(=O)[C@@H]3CSSC[C@H](NC(=O)[C@H]([C@@H](C)CC)NC1=O)C(=O)NCC(=O)N[C@@H](CCCNC(=N)N)C(=O)N[C@@H](CCCCN)C(=O)N[C@@H]([C@@H](C)CC)C(=O)N3)C(=O)N[C@@H]([C@@H](C)CC)C(=O)N2 [RC123C, Retrocyclin 2C] (cyclo(CGRGICRCICGRKICRCI); disulfide 1-6, 8-17, 10-15)	50 µg/mL	less hemagglutination than retrocyclin-1 or retrocyclin-2	–
CC[C@H](C)[C@@H]1NC(=O)CNC(=O)[C@H](CCCNC(=N)N)NC(=O)CNC(=O)[C@@H]2CSSC[C@H](NC1=O)C(=O)N[C@@H](CCCCN)C(=O)N[C@H]1CSSC[C@H](NC(=O)[C@H](CCCNC(=N)N)NC(=O)[C@@H]3CSSC[C@H](NC(=O)[C@H]([C@@H](C)CC)NC1=O)C(=O)NCC(=O)N[C@@H](CCCNC(=N)N)C(=O)N[C@@H](CCCNC(=N)N)C(=O)N[C@@H]([C@@H](C)CC)C(=O)N3)C(=O)N[C@@H]([C@@H](C)CC)C(=O)N2 [RC123E, Retrocyclin 2E] (cyclo(CGRGICKCICGRRICRCI); disulfide 1-6, 8-17, 10-15)	25 µg/mL	–	–
R13Y-Retrocyclin (cyclo(GICICICGRGICYCICGR); disulfide (positions not given here); ring closure inferred; not fully specified (bridges)) [RC-108]	–	–	inhibition of HIV-1 replication (p24) (HIV-1 strain IIIB): either inactive or only modestly active; also recorded: lack of efficacy; inhibition of HIV-1 replication (p24) (HIV-1 strain JR-CSF): lack of efficacy
R9Y-Retrocyclin [RC-107]	–	–	inhibition of HIV-1 replication (p24) (HIV-1 strain IIIB): lack of efficacy; inhibition of HIV-1 replication (p24) (HIV-1 strain JR-CSF): lack of efficacy
CC[C@@H](C)[C@H]1NC(=O)CNC(=O)[C@@H](CCCNC(=N)N)NC(=O)CNC(=O)[C@H]2CSSC[C@@H](NC1=O)C(=O)N[C@H](CCCNC(=N)N)C(=O)N[C@@H]1CSSC[C@@H](NC(=O)[C@@H](CCCNC(=N)N)NC(=O)[C@H]3CSSC[C@@H](NC(=O)[C@@H]([C@H](C)CC)NC1=O)C(=O)NCC(=O)N[C@H](CCCNC(=N)N)C(=O)NCC(=O)N[C@H]([C@H](C)CC)C(=O)N3)C(=O)N[C@H]([C@H](C)CC)C(=O)N2 [RC-112, enantio-retrocyclin] (cyclo(G[dI][dC][dR][dC][dI][dC]G[dR]G[dI][dC][dR][dC][dI][dC]G[dR]); disulfide 3-16, 5-14, 7-12)	50 µg/mL	less hemagglutination than retrocyclin-1 or retrocyclin-2	–
CC[C@H](C)[C@@H]1NC(=O)CNC(=O)[C@H](CCCNC(=N)N)NC(=O)CNC(=O)[C@@H]2CSSC[C@H](NC1=O)C(=O)N[C@@H](CCCNC(=N)N)C(=O)N[C@H]1CSSC[C@H](NC(=O)[C@H](CCCCN)NC(=O)[C@@H]3CSSC[C@H](NC(=O)[C@H]([C@@H](C)CC)NC1=O)C(=O)NCC(=O)N[C@@H](CCCNC(=N)N)C(=O)N[C@@H](CCCNC(=N)N)C(=O)N[C@@H]([C@@H](C)CC)C(=O)N3)C(=O)N[C@@H]([C@@H](C)CC)C(=O)N2 [RC123D, Retrocyclin 2D] (cyclo(CGRGICRCICGRRICKCI); disulfide 1-6, 8-17, 10-15)	50 µg/mL	–	–
